Reference: patent publication US12180193B2, “Accelerating fibrosarcoma protein degrading compounds and associated methods of use” (Arvinas Operations, Inc., priority 2020, dated 2024)

What was measured:
[1] = target: T1, BRAF V600E (Homo sapiens, UniProt P15056, V600E); test: Cellular assay of target protein degradation, T-Rex 293 cells stably transfected with HA-BRAF_V600E (HA immunofluorescence, high content imaging); assay type: cell-based; settings: T-Rex 293 HA-BRAF V600E; for DC50: half maximal degradation, read-out: BRaf V600E DC50; for Dmax: maximum degradation observed
T1 construct: expressed in transfected cells
Outline: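 Doxycycline-induced (1 ng/mL) T-Rex 293 cells expressing HA-BRAF V600E treated 24 h at 37 °C with compound at 1 μM to 0.1 nM final in 0.1% DMSO. Remaining HA-tagged protein quantified by fixed-cell anti-HA immunofluorescence and high-content imaging; DC50 and Dmax (% of control) derived.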

[2] = target: T2, BRAF G466V (Homo sapiens, UniProt P15056, G466V); test: Cellular assay of target protein degradation, T-Rex 293 cells stably transfected with HA-BRAF G466V (HA immunofluorescence, high content imaging); assay type: cell-based; settings: T-Rex 293 HA-BRAF G466V; for DC50: half maximal degradation, read-out: BRaf G466V DC50; for Dmax: maximum degradation observed
T2 construct: expressed in transfected cells
Outline: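 Doxycycline-induced (0.75 ng/mL) cells treated 24 h at 37 °C with compound from 30 nM to 3 pM (0.1% DMSO). After fixation and permeabilisation, HA-tagged BRAF G466V immunostained and quantified by high-content imaging. DC50 and Dmax (percent of control) derived.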

T1 sequence (P15056 whole entry V600E): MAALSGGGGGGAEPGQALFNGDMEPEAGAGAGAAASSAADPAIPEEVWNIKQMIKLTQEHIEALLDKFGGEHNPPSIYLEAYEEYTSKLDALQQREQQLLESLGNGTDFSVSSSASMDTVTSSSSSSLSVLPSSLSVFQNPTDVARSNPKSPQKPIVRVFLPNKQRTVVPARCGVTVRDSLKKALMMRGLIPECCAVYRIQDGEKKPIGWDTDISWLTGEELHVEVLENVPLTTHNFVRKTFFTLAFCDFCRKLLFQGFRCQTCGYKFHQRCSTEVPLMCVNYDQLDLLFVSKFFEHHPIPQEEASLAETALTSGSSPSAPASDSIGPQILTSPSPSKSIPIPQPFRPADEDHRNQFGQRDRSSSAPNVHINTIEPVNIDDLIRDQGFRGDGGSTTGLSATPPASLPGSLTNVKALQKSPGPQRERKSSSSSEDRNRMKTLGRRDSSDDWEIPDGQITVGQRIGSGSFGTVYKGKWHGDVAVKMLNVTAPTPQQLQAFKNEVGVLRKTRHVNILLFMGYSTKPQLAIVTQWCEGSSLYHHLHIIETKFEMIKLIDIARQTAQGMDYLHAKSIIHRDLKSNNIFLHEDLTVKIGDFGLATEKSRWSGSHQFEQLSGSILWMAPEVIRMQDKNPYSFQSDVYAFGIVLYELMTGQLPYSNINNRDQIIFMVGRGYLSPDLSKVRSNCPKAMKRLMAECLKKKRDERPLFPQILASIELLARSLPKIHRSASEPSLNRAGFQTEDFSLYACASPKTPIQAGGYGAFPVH
T2 sequence (P15056 whole entry G466V): as the sequence (P15056 whole entry V600E) above, with G466V, E600V counted along it

Row | Structure (SMILES) | DC50 [1] [µM] | Dmax [1] [%] | DC50 [2] [µM] | Dmax [2] [%]
1 | COc1cc(N2CC3(CN(CC4CCN(c5ccc(-c6cnc7[nH]cc(C(=O)c8c(F)ccc(NS(=O)(=O)N9CC[C@@H](F)C9)c8F)c7c6)cc5)CC4)C3)C2)ccc1C(=O)N[C@@H]1CCC(=O)NC1=O [Compound 344, 4-(6-{[1-(4-{3-[2,6-difluoro-3-({[(3R)-3-fluoropyrroldiin-1-yl]sulfonyl}amino)benzoyl]-1H-pyrrolo[2,3-b]pyridin-5-yl}phenyl)piperidin-4-yl]methyl}-2,6-diazaspiro[3.3]heptan-2-yl)-N-[(3R)-2,6-dioxopiperidin-3-yl]-2-methoxybenzamide] | 0.05 to 0.5 | < 35 | 0.01 to 0.03 | > 70
2 | O=C1CC[C@H](NC(=O)c2ccc(OCCCCN3CCN(c4ccc(-c5cnc6[nH]cc(C(=O)c7c(F)ccc(NS(=O)(=O)N8CC[C@@H](F)C8)c7F)c6c5)cc4)CC3)cc2F)C(=O)N1 [Compound 349, 4-{4-[4-(4-{3-[2,6-difluoro-3-({[(3R)-fluoropyrrolidin-1-yl]sulfonyl}amino)benzoyl]-1H-pyrrolo[2,3-b]pyridin-5-yl}phenyl)piperazin-1-yl]butoxy}-N-[(3S)-2,6-dioxopiperidin-3-yl]-2-fluorobenzamide] | > 0.5 | > 70 | > 0.03 | –
3 | O=C1CCC(NC(=O)c2ccc(OCCCCN3CCN(c4ccc(-c5cnc6[nH]cc(C(=O)c7c(F)ccc(NS(=O)(=O)N8CC[C@@H](F)C8)c7F)c6c5)cc4)CC3)cc2F)C(=O)N1 (stereo partly drawn) [Compound 350, 4-{4-[4-(4-{3-[2,6-difluoro-3-({[(3R)-3-fluoropyrrolidin-1-yl]sulfonyl}amino)benzoyl]-1H-pyrrolo[2,3-b]pyridin-5-yl}phenyl)piperazin-1-yl]butoxy}-N-(2,6-dioxopiperidin-3-yl)-2-fluorobenzamide] | 0.05 to 0.5 | < 35 | > 0.03 | –
4 | O=C1CC[C@H](NC(=O)c2ccc(N3CC4(CN(CC5CCN(c6ccc(-c7cnc8[nH]cc(C(=O)c9c(F)ccc(NS(=O)(=O)N%10CCC(F)(F)C%10)c9F)c8c7)cc6)CC5)C4)C3)cc2F)C(=O)N1 [Compound 351, 4-{6-[(1-{4-[3-(3-{[(3,3-difluoropyrrolidin-1-yl)sulfonyl]amino}-2,6-difluorobenzoyl)-1H-pyrrolo[2,3-b]pyridin-5-yl]phenyl}piperidin-4-yl)methyl}-2,6-diazaspiro[3.3]heptan-2-yl}-N-[(3S)-2,6-dioxopiperidin-3-yl]-2-fluorobenzamide] | 0.005 to 0.05 | 35 to 70 | 0.001 to 0.01 | 35 to 70
5 | O=C1CC[C@H](NC(=O)c2ccc(N3CCC(CN4CC5(C4)CN(c4ccc(-c6cnc7[nH]cc(C(=O)c8c(F)ccc(NS(=O)(=O)N9CC[C@@H](F)C9)c8F)c7c6)cc4)C5)CC3)cn2)C(=O)N1 [Compound 353, 5-(4-{[6-(4-{3-[2,6-difluoro-3-({[(3R)-3-fluoropyrrolidin-1-yl]sulfonyl}amino)benzoyl]-1H-pyrrolo[2,3-b]pyridin-5-yl}phenyl)-2,6-diazaspiro[3.3]heptan-2-yl]methyl}piperidin-1-yl)-N-[(3S)-2,6-dioxopiperidin-3-yl]pyridine-2-carboxamide] | 0.005 to 0.05 | 35 to 70 | 0.001 to 0.01 | 35 to 70

Now from value to molecule:

Row | DC50 [1] [µM] | Dmax [1] [%] | DC50 [2] [µM] | Dmax [2] [%] | Structure (SMILES)
6 | 0.005 to 0.05 | 35 to 70 | 0.001 to 0.01 | > 70 | COc1cc(N2CC3(CN(CC4CCN(c5ccc(-c6cnc7[nH]cc(C(=O)c8c(F)ccc(NS(=O)(=O)N9CC[C@@H](F)C9)c8F)c7c6)cc5)CC4)C3)C2)ccc1C(=O)N[C@H]1CCC(=O)NC1=O [Compound 343, 4-(6-{[1-(4-{3-[2,6-difluoro-3-({[(3R)-3-fluoropyrrolidin-1-yl]sulfonyl}amino)benzoyl]-1H-pyrrolo[2,3-b]pyridin-5-yl}phenyl)piperidin-4-yl]methyl}-2,6-diazaspiro[3.3]heptan-2-yl)-N-[(3S)-2,6-dioxopiperidin-3-yl]-2-methoxybenzamide]
7 | 0.005 to 0.05 | 35 to 70 | 0.001 to 0.01 | > 70 | O=C1CC[C@H](NC(=O)c2ccc(N3CC4(CN(CC5CCN(c6ccc(-c7cnc8[nH]cc(C(=O)c9c(F)ccc(NS(=O)(=O)N%10CC[C@@H](F)C%10)c9F)c8c7)cc6)CC5)C4)C3)cn2)C(=O)N1 [Compound 345, 5-(6-{[1-(4-{3-[2,6-difluoro-3-({[(3R)-3-fluoropyrrolidin-1-yl]sulfonyl}amino)benzoyl]-1H-pyrrolo[2,3-b]pyridin-5-yl}phenyl)piperidin-4-yl]methyl}-2,6-diazaspiro[3.3]heptan-2-yl)-N-[(3S)-2,6-dioxopiperidin-3-yl]pyridine-2-carboxamide]
8 | 0.05 to 0.5 | < 35 | 0.001 to 0.01 | < 35 | O=C1CC[C@@H](NC(=O)c2ccc(N3CC4(CN(CC5CCN(c6ccc(-c7cnc8[nH]cc(C(=O)c9c(F)ccc(NS(=O)(=O)N%10CC[C@@H](F)C%10)c9F)c8c7)cc6)CC5)C4)C3)cn2)C(=O)N1 [Compound 346, 5-(6-{[1-(4-{3-[2,6-difluoro-3-({[(3R)-3-fluoropyrrolidin-1-yl]sulfonyl}amino)benzoyl]-1H-pyrrolo[2,3-b]pyridin-5-yl}phenyl)piperidin-4-yl]methyl}-2,6-diazaspiro[3.3]heptan-2-yl)-N-[(3R)-2,6-dioxopiperidin-3-yl]pyridine-2-carboxamide]
9 | 0.005 to 0.05 | 35 to 70 | 0.001 to 0.01 | > 70 | COc1cc(N2CC3(CN(CC4CCN(c5ccc(-c6cnc7[nH]cc(C(=O)c8c(F)ccc(NS(=O)(=O)N9CC[C@@H](F)C9)c8F)c7c6)cc5)CC4)C3)C2)cc(F)c1C(=O)N[C@H]1CCC(=O)NC1=O [Compound 347, 4-(6-{[1-(4-{3-[2,6-difluoro-3-({[(3R)-3-fluoropyrrolidin-1-yl]sulfonyl}amino)benzoyl]-1H-pyrrolo[2,3-b]pyridin-5-yl}phenyl)piperidin-4-yl]methyl}-2,6-diazaspiro[3.3]heptan-2-yl)-N-[(3S)-2,6-dioxopiperidin-3-yl]-2-fluoro-6-methoxybenzamide]
10 | 0.005 to 0.05 | 35 to 70 | 0.001 to 0.01 | > 70 | COc1cc(N2CC3(CN(CC4CCN(c5ccc(-c6cnc7[nH]cc(C(=O)c8c(F)ccc(NS(=O)(=O)N9CC[C@@H](F)C9)c8F)c7c6)cc5)CC4)C3)C2)cc(F)c1C(=O)NC1CCC(=O)NC1=O (stereo partly drawn) [Compound 348, 4-(6-{[1-(4-{3-[2,6-difluoro-3-({[(3R)-3-fluoropyrrolidin-1-yl]sulfonyl}amino)benzoyl]-1H-pyrrolo[2,3-b]pyridin-5-yl}phenyl)piperidin-4-yl]methyl}-2,6-diazaspiro[3.3]heptan-2-yl)-N-(2,6-dioxopiperidin-3-yl)-2-fluoro-6-methoxybenzamide]
11 | 0.005 to 0.05 | 35 to 70 | 0.001 to 0.01 | > 70 | COc1cc(N2CCC(CN3CC4(C3)CN(c3ccc(-c5cnc6[nH]cc(C(=O)c7c(F)ccc(NS(=O)(=O)N8CC[C@@H](F)C8)c7F)c6c5)cc3)C4)CC2)ccc1C(=O)N[C@H]1CCC(=O)NC1=O [Compound 352, 4-(4-{[6-(4-{3-[2,6-difluoro-3-({[(3R)-3-fluoropyrrolidin-1-yl]sulfonyl}amino)benzoyl]-1H-pyrrolo[2,3-b]pyridin-5-yl}phenyl)-2,6-diazaspiro[3.3]heptan-2-yl]methyl}piperidin-1-yl)-N-[(3S)-2,6-dioxopiperidin-3-yl]-2-methoxybenzamide]
